Test results from patent publication US8481489B2, “GH secretagogues and uses thereof” (Theratechnologies Inc., priority 2003, dated 2013).

Test: In vitro half-life
Type: in vitro ADME
Description: The safety profile of TH9507 is generally good.

- half-life: 33.6 min
SMILES: CC[C@H](C)[C@H](NC(=O)[C@H](C)NC(=O)[C@H](CC(=O)O)NC(=O)[C@H](C)NC(=O)[C@@H](N)Cc1ccc(O)cc1)C(=O)N[C@@H](Cc1ccccc1)C(=O)N[C@H](C(=O)N[C@@H](CC(N)=O)C(=O)N[C@@H](CO)C(=O)N[C@@H](Cc1ccc(O)cc1)C(=O)N[C@@H](CCCNC(=N)N)C(=O)N[C@@H](CCCCN)C(=O)N[C@H](C(=O)N[C@@H](CC(C)C)C(=O)NCC(=O)N[C@@H](CCC(N)=O)C(=O)N[C@@H](CC(C)C)C(=O)N[C@@H](CO)C(=O)N[C@@H](C)C(=O)N[C@@H](CCCNC(=N)N)C(=O)N[C@@H](CCCCN)C(=O)N[C@@H](CC(C)C)C(=O)N[C@@H](CC(C)C)C(=O)N[C@@H](CCC(N)=O)C(=O)N[C@@H](CC(=O)O)C(=O)N[C@H](C(=O)N[C@@H](CCSC)C(=O)N[C@@H](CO)C(=O)N[C@@H](CCCNC(=N)N)C(=O)N[C@@H](CCC(N)=O)C(=O)N[C@@H](CCC(N)=O)C(=O)NCC(=O)N[C@@H](CCC(=O)O)C(=O)N[C@@H](CO)C(=O)N[C@@H](CC(N)=O)C(=O)N[C@@H](CCC(N)=O)C(=O)N[C@@H](CCC(=O)O)C(=O)N[C@@H](CCCNC(=N)N)C(=O)NCC(=O)N[C@@H](C)C(=O)N[C@@H](CCCNC(=N)N)C(=O)N[C@@H](C)C(=O)N[C@@H](CCCNC(=N)N)C(=O)N[C@@H](CC(C)C)C(N)=O)[C@@H](C)CC)C(C)C)[C@@H](C)O [hGRF, hGRF(1-44)NH2, reference compound]
